For assay [1], the target named is T1, Sterol O-acyltransferase 2 (Rattus norvegicus, UniProt Q7TQM4).
T1 sequence (Q7TQM4 whole entry): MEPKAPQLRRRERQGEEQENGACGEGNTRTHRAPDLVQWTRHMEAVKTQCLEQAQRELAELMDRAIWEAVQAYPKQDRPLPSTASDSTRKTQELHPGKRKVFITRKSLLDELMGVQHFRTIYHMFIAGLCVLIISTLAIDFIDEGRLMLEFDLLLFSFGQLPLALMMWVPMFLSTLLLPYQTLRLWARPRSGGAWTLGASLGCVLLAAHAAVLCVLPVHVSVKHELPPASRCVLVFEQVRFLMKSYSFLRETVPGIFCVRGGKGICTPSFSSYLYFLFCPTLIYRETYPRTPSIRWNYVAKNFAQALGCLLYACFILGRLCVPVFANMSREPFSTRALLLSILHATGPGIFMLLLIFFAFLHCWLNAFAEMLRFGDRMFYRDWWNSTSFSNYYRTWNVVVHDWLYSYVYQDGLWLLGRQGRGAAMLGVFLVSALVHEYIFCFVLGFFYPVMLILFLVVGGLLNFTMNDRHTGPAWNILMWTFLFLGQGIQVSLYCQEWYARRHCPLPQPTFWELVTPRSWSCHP
Briefly: Inhibitory activity against acyl-CoA:cholesterol O-acyltransferase (ACAT).

In another assay the test system is Cricetinae gen. sp. The assay can be described thus: Effective dose for inhibition of [3H]- cholesterol absorption in a hamster model. The format is functional, Cricetulus griseus.

Where only a bound is given, the exact number is not on record here.

The values that follow come from ChEMBL document CHEMBL1128075, “Chemical modification and structure-activity relationships of pyripyropenes; potent, bioavailable inhibitor of acyl-CoA: Cholesterol O-acyltransferase (ACAT)” (Bioorg Med Chem Lett, 1995).

The term IC50 denotes the point on the concentration scale where inhibition reaches its midpoint. A high value points to weaker potency. By ED50 is commonly meant the dose that gives a 50% effect, or the effect in half of the subjects. Read a high ED50 as weaker potency.

For `CCCC(N)C(=O)O[C@H]1c2c(cc(-c3cccnc3)oc2=O)O[C@@]2(C)C1[C@@]1(C)CC[C@H](OC(C)=O)[C@@](C)(COC(C)=O)C1C[C@@H]2OC(C)=O` (stereo partly specified), it took 16 µM to reach half-maximal inhibition in assay [1] (IC50). Same read-out and setting: the figure for `CCCC(N)C(=O)O[C@H]1CC[C@@]2(C)C(C[C@H](OC(C)=O)[C@@]3(C)Oc4cc(-c5cccnc5)oc(=O)c4[C@H](O)C23)[C@]1(C)COC(C)=O` (stereo partly specified) is 0.62 µM; for `CCCC(N)C(=O)O[C@H]1CC2[C@](C)(CC[C@@H]3OC(=O)OC[C@@]23C)C2[C@@H](O)c3c(cc(-c4cccnc4)oc3=O)O[C@@]21C` (stereo partly specified) it is 2.5 µM.

Take `CCCCO[C@H]1c2c(cc(-c3cccnc3)oc2=O)O[C@@]2(C)C1[C@@]1(C)CC[C@H](OC(C)=O)[C@@](C)(COC(C)=O)C1C[C@@H]2OC(C)=O` (stereo partly specified): the IC50 in assay [1] worked out at 2.4 µM. On the same count and under the same terms, the figure for `CCCC(N)C(=O)O[C@H]1CC2[C@](C)(CC[C@H](O)[C@@]2(C)CO)C2[C@@H](O)c3c(cc(-c4cccnc4)oc3=O)O[C@@]21C` (stereo partly specified) is 79 µM; for `CC(=O)O[C@H]1CC[C@@]2(C)C(C[C@H](OC(C)=O)[C@@]3(C)Oc4cc(-c5cccnc5)oc(=O)c4[C@H](O)C23)[C@]1(C)COCC(C)C` (stereo partly specified) it is 5.9 µM.

As for `CCCC(N)C(=O)O[C@H]1CC2[C@](C)(CC[C@@H]3OC4(CCCCC4)OC[C@@]23C)C2[C@@H](O)c3c(cc(-c4cccnc4)oc3=O)O[C@@]21C` (stereo partly specified), the IC50 in assay [1] stood at 0.039 µM. In turn, `CCCO[C@H]1c2c(cc(-c3cccnc3)oc2=O)O[C@@]2(C)C1[C@@]1(C)CC[C@H](OC(C)=O)[C@@](C)(COC(C)=O)C1C[C@@H]2OC(C)=O` (stereo partly specified) registered an IC50 in assay [1] of 23 µM. `CCCCOC[C@@]1(C)C2C[C@H](OC(C)=O)[C@@]3(C)Oc4cc(-c5cccnc5)oc(=O)c4[C@H](O)C3[C@@]2(C)CC[C@@H]1OC(C)=O` (stereo partly specified) displayed an IC50 in assay [1] of 4.2 µM. Compared with the last molecule, the IC50 is about 5.5-fold lower. `CCCC(N)C(=O)O[C@H]1CC2[C@](C)(CC[C@@H]3OC(c4ccccc4)OC[C@@]23C)C2[C@@H](O)c3c(cc(-c4cccnc4)oc3=O)O[C@@]21C` (stereo partly specified) came in with a 50% inhibitory concentration (IC50) in assay [1] of 0.006 µM. Consider `CC(=O)OC[C@@]1(C)C2C[C@H](OCC(C)C)[C@@]3(C)Oc4cc(-c5cccnc5)oc(=O)c4[C@H](O)C3[C@@]2(C)CC[C@@H]1OC(C)=O` (stereo partly specified), for which the IC50 in assay [1] was 0.13 µM. Compared with the last molecule, the IC50 is about 22-fold higher.

In the case of `CC(=O)OC[C@@]1(C)C2C[C@H](OC(C)=O)[C@@]3(C)Oc4cc(-c5cccnc5)oc(=O)c4[C@H](O)C3[C@@]2(C)CC[C@@H]1OCC(C)C` (stereo partly specified), in assay [1], half-maximal inhibition (IC50) required 0.13 µM.

As for `CCCC(N)C(=O)OC[C@@]1(C)C2C[C@H](OC(C)=O)[C@@]3(C)Oc4cc(-c5cccnc5)oc(=O)c4[C@H](O)C3[C@@]2(C)CC[C@@H]1OC(C)=O` (stereo partly specified), in assay [1], the IC50 is more than 8 µM. Still for that read-out and setting: the same measure for `CCCC(N)C(=O)O[C@H]1CC2[C@](C)(CC[C@@H]3OC(C)(c4ccccc4)OC[C@@]23C)C2[C@@H](O)c3c(cc(-c4cccnc4)oc3=O)O[C@@]21C` (stereo partly specified): 0.91 µM. In turn, `CCCC(N)C(=O)O[C@H]1CC2[C@](C)(CC[C@@H]3OC(CC)OC[C@@]23C)C2[C@@H](O)c3c(cc(-c4cccnc4)oc3=O)O[C@@]21C` (stereo partly specified) returned an IC50 in assay [1] of 0.033 µM. Same read-out and setting: the same measure for `CC(=O)OC[C@@]1(C)C2C[C@H](OC(C)=O)[C@@]3(C)Oc4cc(-c5cccnc5)oc(=O)c4C=C3[C@@]2(C)CC[C@@H]1OC(C)=O` (stereo partly specified): 5.8 µM. Turning to `CCCC(N)C(=O)O[C@H]1CC2[C@](C)(CC[C@@H]3OC(C)(C)OC[C@@]23C)C2[C@@H](O)c3c(cc(-c4cccnc4)oc3=O)O[C@@]21C` (stereo partly specified), the IC50 in assay [1] amounted to 0.086 µM.

In turn, `CC(=O)OC[C@@]1(C)C2C[C@H](OC(C)=O)[C@@]3(C)Oc4cc(-c5ccc[n+]([O-])c5)oc(=O)c4[C@H](O)C3[C@@]2(C)CC[C@@H]1OC(C)=O` (stereo partly specified) displayed an IC50 in assay [1] of 5.8 µM. `CCCO[C@H]1CC[C@@]2(C)C(C[C@H](OC(C)=O)[C@@]3(C)Oc4cc(-c5cccnc5)oc(=O)c4[C@H](O)C23)[C@]1(C)COC(C)=O` (stereo partly specified) displayed an IC50 in assay [1] of 0.14 µM. Against the preceding molecule, the IC50 is about 41-fold lower. `CCCCO[C@H]1CC2[C@](C)(CC[C@H](OC(C)=O)[C@@]2(C)COC(C)=O)C2[C@@H](O)c3c(cc(-c4cccnc4)oc3=O)O[C@@]21C` (stereo partly specified) gave an IC50 in assay [1] of 0.038 µM. This IC50 lies about 3.7-fold lower than the previous one. In assay [1], `CCCO[C@H]1CC2[C@](C)(CC[C@H](OC(C)=O)[C@@]2(C)COC(C)=O)C2[C@@H](O)c3c(cc(-c4cccnc4)oc3=O)O[C@@]21C` (stereo partly specified) yielded an IC50 of 0.067 µM. This IC50 is about 1.8-fold higher than that of the molecule before. `CCCC(N)C(=O)O[C@H]1CC2[C@](C)(CC[C@@H]3OC(C)OC[C@@]23C)C2[C@@H](O)c3c(cc(-c4cccnc4)oc3=O)O[C@@]21C` (stereo partly specified): 0.025 µM corresponded to half-maximal inhibition in assay [1] (IC50). Consider `CCCOC[C@@]1(C)C2C[C@H](OC(C)=O)[C@@]3(C)Oc4cc(-c5cccnc5)oc(=O)c4[C@H](O)C3[C@@]2(C)CC[C@@H]1OC(C)=O` (stereo partly specified), for which the IC50 in assay [1] was determined as 0.27 µM.

For the molecule `CCCCO[C@H]1CC[C@@]2(C)C(C[C@H](OC(C)=O)[C@@]3(C)Oc4cc(-c5cccnc5)oc(=O)c4[C@H](O)C23)[C@]1(C)COC(C)=O` (stereo partly specified), the IC50 in assay [1] came out at 0.2 µM. The same measure, in the same setting: the figure for `CCCC(N)C(=O)O[C@H]1CC2[C@](C)(CC[C@H](OC(C)=O)[C@@]2(C)COC(C)=O)C2[C@@H](O)c3c(cc(-c4cccnc4)oc3=O)O[C@@]21C` (stereo partly specified) is 0.013 µM; for `CC(=O)OCC1(C)C2C[C@H](OCc3ccccc3)[C@@]3(C)Oc4cc(-c5cccnc5)oc(=O)c4[C@H](O)C3[C@@]2(C)CC[C@@H]1OC(C)=O` (single isomer, unassigned) it is 7.4 µM; for `CC(=O)O[C@H]1CC2C3(C)COC(C)(C)O[C@H]3CC[C@]2(C)C2[C@@H](O)c3c(cc(-c4cccnc4)oc3=O)O[C@@]21C` (single isomer, unassigned) it is 1.2 µM. Turning to `CC(=O)O[C@H]1CC[C@@]2(C)C(C[C@H](OC(C)=O)[C@@]3(C)Oc4cc(-c5cccnc5)oc(=O)c4[C@H](O)C23)C1(C)COS(C)(=O)=O` (single isomer, unassigned), the IC50 in assay [1] is 0.019 µM. Besides, the ED50 with Cricetinae gen. sp. came out at 10 mg/kg. In assay [1], `CC(=O)O[C@H]1CC[C@@]2(C)C(C[C@H](OC(C)=O)[C@@]3(C)Oc4cc(-c5cccnc5)oc(=O)c4[C@H](O)C23)C1(C)COS(=O)(=O)c1ccccc1` (single isomer, unassigned) registered an IC50 of 110 µM. On the same count and under the same terms, the figure for `CO[C@H]1c2c(cc(-c3cccnc3)oc2=O)O[C@@]2(C)C1[C@@]1(C)CC[C@H](OC(C)=O)C(C)(COC(C)=O)C1C[C@@H]2OC(C)=O` (single isomer, unassigned) is 38 µM; for `CC(=O)O[C@H]1CC2C3(C)COC(c4ccccc4)O[C@H]3CC[C@]2(C)C2[C@@H](O)c3c(cc(-c4cccnc4)oc3=O)O[C@@]21C` (single isomer, unassigned) it is 0.12 µM; for `CC12COC(c3ccccc3)O[C@H]1CC[C@@]1(C)C2C[C@H](O)[C@@]2(C)Oc3cc(-c4cccnc4)oc(=O)c3[C@H](O)C12` (single isomer, unassigned) it is more than 180 µM. In assay [1], `CC1(CO)C2C[C@H](O)[C@@]3(C)Oc4cc(-c5cccnc5)oc(=O)c4[C@H](O)C3[C@@]2(C)CC[C@@H]1O` (single isomer, unassigned) gave a 50% inhibitory concentration (IC50) of more than 220 µM. The molecule `CC(=O)OCC1(C)C2C[C@H](OC(C)=O)[C@@]3(C)Oc4cc(-c5ccc[n+](C)c5)oc(=O)c4[C@H](O)C3[C@@]2(C)CC[C@@H]1OC(C)=O` (single isomer, unassigned) displayed an IC50 in assay [1] of 2.1 µM. In turn, `CC1(C)OCC2(C)C3C[C@H](O)[C@@]4(C)Oc5cc(-c6cccnc6)oc(=O)c5[C@H](O)C4[C@@]3(C)CC[C@@H]2O1` (single isomer, unassigned) displayed an IC50 in assay [1] of more than 200 µM. `CC(=O)OCC1(C)C2C[C@H](OC(C)=O)[C@@]3(C)Oc4cc(-c5cccnc5)oc(=O)c4C(=O)C3[C@@]2(C)CC[C@@H]1OC(C)=O` (single isomer, unassigned): the IC50 in assay [1] was determined as 2.1 µM. With `CC(=O)O[C@H]1CC2C(C)(CO)[C@@H](O)CC[C@]2(C)C2[C@@H](O)c3c(cc(-c4cccnc4)oc3=O)O[C@@]21C` (single isomer, unassigned), the IC50 in assay [1] turned out to be 100 µM. Against the preceding molecule, the IC50 is about 48-fold higher. Regarding `CC(=O)OCC1(C)C2C[C@H](OS(C)(=O)=O)[C@@]3(C)Oc4cc(-c5cccnc5)oc(=O)c4[C@H](O)C3[C@@]2(C)CC[C@@H]1OC(C)=O` (single isomer, unassigned), in assay [1], inhibition was half-maximal at 1.8 µM (IC50).

In assay [1], `CC(=O)OCC1(C)C2C[C@H](OC(C)=O)[C@@]3(C)Oc4cc(-c5cccnc5)oc(=O)c4[C@H](OC(C)=O)C3[C@@]2(C)CC[C@@H]1OC(C)=O` (single isomer, unassigned) registered a 50% inhibitory concentration (IC50) of 5.1 µM. Compared with the last molecule, the IC50 is about 2.8-fold higher. The molecule `CC(=O)OCC1(C)C2C[C@H](OS(=O)(=O)c3ccccc3)[C@@]3(C)Oc4cc(-c5cccnc5)oc(=O)c4[C@H](O)C3[C@@]2(C)CC[C@@H]1OC(C)=O` (single isomer, unassigned) gave an IC50 in assay [1] of 3.1 µM.
